Measured values taken from patent publication US10675253B2, “Methods of diagnosis and treatment involving nitrite” (Board of Supervisors of Louisiana State University and …, priority 2017, dated 2020).
Like-named read-outs stand apart in the source and are kept apart here.

Key:
xanthine oxidase (XO) = xanthine oxidase (XO) (Homo sapiens, UniProt P47989); assay: XO dependent nitrite reduction to NO / XO activity; type: biochemical
Text: Referring to FIGS. 1-8, a further embodiment of the disclosed invention, including a method of treatment of various conditions by increasing XO associated nitrite conversion to nitric oxide is described. This embodiment of the disclosed invention describes chemical reactions that may be useful for stimulating xanthine oxidase (XO) to increase nitrite conversion to nitric oxide, namely diallyl trisulfide (DATS) stimulation of XO reduction of nitrite to nitric oxide. This would be useful for various purposes including unique ways to stimulate nitrite reduction to nitric oxide within an organism.
DATS may therefore be administered alone, or for example, with nitrite and/or XO, as a therapeutic for known NO mediated conditions, including inflammation, wound healing, and infections. DATS can be administered in a variety of methods, including nanoformulation compounds, especially for creams or lotions.

[1] = nitrite reduction to NO facilitated by ascorbic acid, DADS, or DATS; conditions: FIGS. 4, 6; over one hour
Text: FIG. 4 is a line graph of experiments showing nitrite reduction to NO facilitated by ascorbic acid, DADS, or DATS;
FIG. 5 is a pair of line graphs of two experiments showing nitrite reduction to NO facilitated by ascorbic acid over one hour;
FIG. 6 is a pair of line graphs of two experiments showing nitrite reduction to NO facilitated by DADS over one hour;
FIG. 7 is a pair of line graphs of two experiments showing nitrite reduction to NO facilitated by DATS over one hour;
Turning to FIGS. 1-7, an embodiment of the disclosed invention, including a method of treatment of various conditions by increasing nitrite conversion to nitric oxide via DADS is described. This embodiment of the disclosed invention describes chemical reactions that may be useful for stimulating nitrite conversion to nitric oxide, namely diallyl disulfide (DADS) reduction of nitrite to nitric oxide. […] This would be useful for various purposes including unique ways to stimulate nitrite reduction to nitric oxide within an organism.
While it has been shown that increasing NO levels can be therapeutic for a number of conditions, the biochemical mechanism of nitrite reduction to NO, and thereby increasing NO levels, is poorly understood. Some agents can facilitate such reduction, such as ascorbic acid, but do so weakly. […]

[2] = ascorbic acid as comparison agent; general statement; cited from earlier work

xanthine oxidase (XO), sequence (P47989 whole entry, species assumed): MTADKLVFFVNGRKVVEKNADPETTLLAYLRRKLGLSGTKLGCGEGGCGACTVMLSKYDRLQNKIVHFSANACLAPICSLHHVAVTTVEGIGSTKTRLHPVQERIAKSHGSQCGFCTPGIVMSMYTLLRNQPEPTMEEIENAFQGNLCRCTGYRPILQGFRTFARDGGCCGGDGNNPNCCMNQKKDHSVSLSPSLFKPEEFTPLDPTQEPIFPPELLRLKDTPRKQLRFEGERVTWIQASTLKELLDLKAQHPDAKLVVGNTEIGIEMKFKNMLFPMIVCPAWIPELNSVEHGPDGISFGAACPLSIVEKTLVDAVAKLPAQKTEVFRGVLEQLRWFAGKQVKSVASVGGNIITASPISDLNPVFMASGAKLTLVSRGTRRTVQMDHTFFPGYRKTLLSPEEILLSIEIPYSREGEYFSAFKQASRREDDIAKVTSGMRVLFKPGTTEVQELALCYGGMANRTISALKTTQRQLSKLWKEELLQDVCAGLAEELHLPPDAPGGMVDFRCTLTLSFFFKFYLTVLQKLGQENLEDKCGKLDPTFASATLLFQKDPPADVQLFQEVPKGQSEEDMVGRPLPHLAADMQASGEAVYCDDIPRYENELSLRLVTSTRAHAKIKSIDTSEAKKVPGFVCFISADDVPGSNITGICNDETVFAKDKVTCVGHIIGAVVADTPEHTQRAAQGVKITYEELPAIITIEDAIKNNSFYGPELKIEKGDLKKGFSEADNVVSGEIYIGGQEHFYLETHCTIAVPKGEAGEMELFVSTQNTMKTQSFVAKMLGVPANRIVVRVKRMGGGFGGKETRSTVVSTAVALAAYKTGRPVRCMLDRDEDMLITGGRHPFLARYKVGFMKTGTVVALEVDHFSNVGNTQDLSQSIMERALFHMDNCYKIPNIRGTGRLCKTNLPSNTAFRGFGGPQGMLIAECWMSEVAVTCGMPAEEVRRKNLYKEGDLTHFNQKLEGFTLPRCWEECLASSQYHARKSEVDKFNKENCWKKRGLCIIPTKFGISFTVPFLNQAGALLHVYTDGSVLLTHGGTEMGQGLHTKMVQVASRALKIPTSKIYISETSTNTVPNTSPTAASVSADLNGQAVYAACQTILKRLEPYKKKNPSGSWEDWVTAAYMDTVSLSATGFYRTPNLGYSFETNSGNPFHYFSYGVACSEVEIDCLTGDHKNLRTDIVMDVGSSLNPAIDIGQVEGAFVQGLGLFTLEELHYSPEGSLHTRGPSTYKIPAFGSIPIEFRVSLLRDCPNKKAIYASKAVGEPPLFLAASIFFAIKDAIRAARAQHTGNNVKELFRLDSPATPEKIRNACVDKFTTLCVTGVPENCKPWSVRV

With `C=CCSSSCC=C` [DATS, diallyl trisulfide] the “XO dependent nitrite reduction to NO” value (xanthine oxidase (XO)) was “selectively increases XO dependent nitrite reduction to NO” and the “XO activity & NO production” value (xanthine oxidase (XO); FIG. 8) was “differentially affects XO activity & NO production”.

In the case of `C=CCSSCC=C` [DADS, diallyl disulfide], the “nitrite reduction to NO” value [1] is reported as “selectively stimulate nitrite reduction to NO”.

For `O=C1O[C@H]([C@@H](O)CO)C(O)=C1O` [ascorbic acid], the “nitrite reduction to NO” value [2] is listed as “weakly”.
